Measured values from patent US9200008B2 (ASKA PHARMACEUTICAL CO., LTD., priority 2010, dated 2015).
Like-named read-outs stand apart in the source and are kept apart here.

Experiments:
Format in all cases: cell-based
[1] = tested on: Human prostate cancer cell lines (PC-3 cells); assay: Measurement of cell death-inducing activity (Test Example 1); details: PC-3, 48 h, 48 hours after addition, tested at 10, 1, 0.1, 0.025 and 0.00625 μmol/L, qualitative evaluation of 10 fields, read-out: Concentration showing the cell death-inducing activity (cell death-inducing rate not less than 40%)
Procedure, shortened: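 Compound treatment lasted 48 h at 10 to 0.00625 μmol/L (five levels, DMSO as control) on PC-3 cells pre-cultured 48 h at 37 °C, 5% CO2 after seeding at 1×10^5 cells/well. A cell death-inducing rate of 40% or more counted as active.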

[2] = tested on: Human prostate cancer cell lines (PC-3 cells); assay: Calculation of IC50 value, cell proliferation inhibitory activity by XTT assay, PC-3 cells (Test Example 2); details: 72 hours culture with test substance, read-out: Cell proliferation inhibitory activity (IC50 value calculated from XTT assay), concentration showing 50% inhibitory activity, human prostate cancer cell lines (PC-3)
Description: (§1) Human prostate cancer cell lines (PC-3 cells) and human fibrosarcoma cell lines (HT1080 cells) were seeded to 96-well microplates so as to provide a density of 1,300 cells/well and that of 3,100 cells/well, respectively. In the presence of 5% CO2 at 37° C., the PC-3 cells and the HT1080 cells were cultured for 48 hours and 24 hours, respectively. Thereafter, each one of test substances was added to each well. As a control of a medical agent, DMSO was added. After the addition, both cells were continuously cultured for 72 hours. Then, an XTT labeling reagent containing 1 mg/mL of sodium 3′-[1-(phenylaminocarbonyl)-3,4-tetrazolium]-bis(4-methoxy-6-nitro)benzenesulfonate hydrate (XTT) and an electronic coupling reagent containing 1.25 mM N-methyl dibenzopyrazine methyl sulfate (PMS) were mixed at a ratio of 50:1 to give an XTT labeling mixture. The XTT labeling mixture was added to each well in an amount of 50 μL per well, and the cells were cultured for another 4 hours. A culture solution containing a test substance was used as a blank, and the absorbencies of a culture solution containing the XTT labeling mixture at a measurement wavelength (450 nm) and a control wavelength (650 nm) were measured by a plate reader. The difference between these absorbencies was evaluated as an activity of dehydrogenase of mitochondria derived from living cells. With respect to the following model formula of sigmoid curve, the convergent solution of each variable (gain, range, base and α) that minimize the residual sum of squares of the difference between these absorbencies and regressive prediction was determined, and then IC50 (=e^α) of each test substance was calculated.
The IC50 values of the compounds represented by the formula (1) or the salts thereof on two cancer cell lines according to the method of Test Example 2 were calculated, and the results are shown in Table A.

[3] = tested on: human fibrosarcoma cell lines (HT1080 cells); assay: Calculation of IC50 value, cell proliferation inhibitory activity by XTT assay, HT1080 cells (Test Example 2)
Description: as §1, with “Then, an XTT labeling reagent containing 1 mg/mL of sodium 3′-[1-(phenylaminocarbonyl)-3,4-tetrazolium]-bis(4-methoxy-6-nitro)benzenesulfonate hydrate (XTT) and an electronic coupling reagent containing 1.25 mM N-methyl dibenzopyrazine methyl sulfate (PMS) were mixed at a ratio of 50:1 to give an XTT labeling mixture.” left out

[4] = HT1080 cells, 72 hours culture with test substance, XTT assay, read-out: Cell proliferation inhibitory activity (IC50 value calculated from XTT assay), concentration showing 50% inhibitory activity, human fibrosarcoma cell lines (HT1080)

Compound	minimal effective concentration [1] [µM]	also measured
COc1cc(Cl)ccc1-c1nc(C)c(NC(=O)OCc2ccc3c(c2)nc2n3CCCC2)s1 [Example 9-1, [2-(4-Chloro-2-methoxyphenyl)-4-methylthiazol-5-yl]carbamic acid 1,2,3,4-tetrahydrobenzo[4,5]imidazo[1,2-a]pyridin-7-ylmethyl ester]	0.025	IC50 [2]: 6.7 nM; IC50 [3, 4]: 15.1 nM
CCn1nnc2cc(COC(=O)Nc3sc(-c4ccc(C)cc4OC)nc3C)ccc21 [Example 9-25]		IC50 [2]: 0.81 nM; IC50 ([3]; read-out: Cell proliferation inhibitory activity (IC50 value calculated from XTT assay), concentration showing 50% inhibitory activity, human fibrosarcoma cell lines (HT1080), HT1080 cells, 72 hours culture with test substance, XTT assay): 1.64 nM
CCn1cnc2cc(COC(=O)Nc3sc(-c4ccccc4OC)nc3C)ccc21 [Example 9-57]	0.025	IC50 [2]: 2.17 nM
COc1cc(C)ccc1-c1nc(C)c(NC(=O)OCc2ccc3c(c2)nc2n3CCOC2)s1 [Example 9-94]	0.00625	IC50 [2]: 0.56 nM; IC50 ([3]; 72 h): 1.75 nM
CCn1cc2cc(COC(=O)Nc3sc(-c4ccc(C)cc4OC)nc3C)ccc2n1 [Example 9-155]	0.025	IC50 [2]: 6.77 nM
CCn1cc2cc(NC(=O)OCc3sc(-c4ccc(C)cc4C)nc3C)ccc2n1 [Example 13-53]	0.1	IC50 [2]: 6.35 nM
CCn1cnc2cc(NC(=O)OCc3cc(-c4ccc(C)cc4OC)nn3C)ccc21 [Example 13-90]	0.00625	IC50 [2]: 0.43 nM
COc1cc(C)ccc1-c1cc(COC(=O)Nc2ccc3c(c2)nc2n3CCOC2)n(C)n1 [Example 13-101]	0.00625	IC50 [2]: 1.64 nM; IC50 [3, 4]: 4.19 nM
Cc1cc(F)ccc1-c1nc(C)c(COC(=O)Nc2ccc3c(c2)nc2n3CCSC2)s1 [Example 43-1, (3,4-Dihydro-1H-2-thia-4a,9-diazafluoren-7-yl)carbamic acid 2-(4-fluoro-2-methylphenyl)-4-methylthiazol-5-ylmethyl ester]	0.1	
Cc1cc(Cl)ccc1-c1nc(C)c(COC(=O)Nc2ccc3c(c2)nc2n3CCSC2)s1 [Example 43-2]	0.025	
Cc1ccc(-c2nc(C)c(COC(=O)Nc3ccc4c(c3)nc3n4CCSC3)s2)c(C)c1 [Example 43-3]	0.1	
CCc1nc(-c2ccc(F)cc2C)sc1COC(=O)Nc1ccc2c(c1)nc1n2CCSC1 [Example 43-4]	1	
COc1cc(C)ccc1-c1cc(NC(=O)OCc2ccc3c(c2)nc2n3CCOC2)sn1 [Example 45-1]	10	
COc1cc(Cl)ccc1-c1cc(NC(=O)OCc2ccc3c(c2)ncn3C)sn1 [Example 45-2]	1	
CCn1cnc2cc(COC(=O)Nc3cc(-c4ccc(Cl)cc4OC)ns3)ccc21 [Example 45-3]	10	
CCn1ncc2cc(COC(=O)Nc3cc(-c4ccc(Cl)cc4OC)ns3)ccc21 [Example 45-4]	10	
COc1cc(Cl)ccc1-c1nscc1NC(=O)OCc1ccc2c(c1)ncn2C [Example 45-5]	0.1	
COc1ccccc1-c1nscc1NC(=O)OCc1ccc2c(c1)ncn2C [Example 45-6]	1	
CCn1ncc2cc(COC(=O)Nc3csnc3-c3ccc(Cl)cc3OC)ccc21 [Example 45-7]	0.1	

Compound	minimal effective concentration [1] [µM]	also measured
Cn1cnc2cc(NC(=O)OCc3cc(-c4ccc(Cl)cc4Cl)ns3)ccc21 [Example 47-1]	0.1	
COc1ccccc1-c1cc(COC(=O)Nc2ccc3c(c2)ncn3C)sn1 [Example 47-2]	1	
COc1cc(C)ccc1-c1cc(COC(=O)Nc2ccc3c(c2)ncn3C)sn1 [Example 47-3]	0.00625	
COc1cc(Cl)ccc1-c1cc(COC(=O)Nc2ccc3c(c2)ncn3C)sn1 [Example 47-4]	0.00625	
COc1ccccc1-c1cc(COC(=O)Nc2ccc3c(c2)nc2n3CCCC2)sn1 [Example 47-5]	0.1	
COc1cc(C)ccc1-c1cc(COC(=O)Nc2ccc3c(c2)nc2n3CCCC2)sn1 [Example 47-6]	0.025	
COc1cc(Cl)ccc1-c1cc(COC(=O)Nc2ccc3c(c2)nc2n3CCCC2)sn1 [Example 47-7]	0.00625	
O=C(Nc1ccc2c(c1)nc1n2CCCC1)OCc1cc(-c2ccc(Cl)cc2Cl)ns1 [Example 47-8]	1	
COc1cc(Cl)ccc1-c1cc(COC(=O)Nc2ccc3c(c2)nc2n3CCOC2)sn1 [Example 47-9]	0.00625	
CCn1cnc2cc(NC(=O)OCc3cc(-c4ccccc4OC)ns3)ccc21 [Example 47-10]	10	
CCn1cnc2cc(NC(=O)OCc3cc(-c4ccc(Cl)cc4OC)ns3)ccc21 [Example 47-11]	0.1	
CCn1cnc2cc(NC(=O)OCc3cc(-c4ccc(Cl)cc4Cl)ns3)ccc21 [Example 47-12]	10	
COc1cc(Cl)ccc1-c1cc(C(=O)N/N=C/c2ccc3c(c2)ncn3C)sn1 [Example 49-1]	0.025	
COc1ccccc1-c1cc(C(=O)N/N=C/c2ccc3c(c2)ncn3C)sn1 [Example 49-2, 3-(2-Methoxyphenyl)isothiazole-5-carboxylic acid[1-(1-methyl-1H-benzimidazol-5-yl)methylidene]hydrazide]	0.025	
O=C(N/N=C/c1ccc2c(c1)nc1n2CCOC1)c1cc(-c2ccc(Cl)cc2Cl)ns1 [Example 49-3]	10	
COc1ccccc1-c1cc(C(=O)N/N=C/c2ccc3c(c2)nc2n3CCOC2)sn1 [Example 49-4, 3-(2-Methoxyphenyl)isothiazole-5-carboxylic acid[1-(3,4-dihydro-1H-2-oxa-4a,9-diazafluoren-7-yl)methylidene]hydrazide]	10	
COc1cc(Cl)ccc1-c1cc(C(=O)N/N=C/c2ccc3c(c2)nc2n3CCOC2)sn1 [Example 49-5, 3-(4-Chloro-2-methoxyphenyl)isothiazole-5-carboxylic acid[1-(3,4-dihydro-1H-2-oxa-4a,9-diaza-fluoren-7-yl)methylidene]hydrazide]	1	
CCn1ncc2cc(/C=N/NC(=O)c3cc(-c4ccccc4OC)ns3)ccc21 [Example 49-7, 3-(2-Methoxyphenyl)isothiazole-5-carboxylic acid[1-(1-ethyl-1H-indazol-5-yl)methylidene]hydrazide]	1	
CCn1ncc2cc(/C=N/NC(=O)c3cc(-c4ccc(Cl)cc4OC)ns3)ccc21 [Example 49-8]	1	
